Test results taken from patent US8138167B2, “Methods for treating lung cancers” (Oncotherapy Science, Inc., priority 2006, dated 2012).
Read-outs that look alike come from different tables or passages of the source.

Key:
[1] = test system: lung cancer; conditions: cited from earlier work
[2] = test system: PC-9 cells; conditions: gefitinib-sensitive, amphiregulin-nonexpressing NSCLC line PC-9; upon autocrine secretion of amphiregulin; cited from earlier work
[3] = test system: progressive non-small-cell lung cancer; test: gefitinib therapy (250 mg/day) of 50 patients with progressive non-small-cell lung cancer, overall evaluation of tumor response
[4] = test system: advanced non-small-cell lung cancer; conditions: Japanese patients with advanced NSCLC treated since approval; cited from earlier work
[5] = 50 progressive NSCLC patients, gefitinib 250 mg/day, evaluation after four months
[6] = of 50 patients after gefitinib therapy

COc1cc2ncnc(Nc3ccc(F)c(Cl)c3)c2cc1OCCCN1CCOCC1 [gefitinib, N-(3-chloro-4-fluorophenyl)-7-methoxy-6-(3-morpholinopropoxy)quinazolin-4-amine]
median survival time ([1]; adenocarcinoma patients, gefitinib arm (placebo […])): 6.3 months | median survival time ([1]; all parent populations, gefitinib arm (placebo 5.1)): 5.6 months | antitumor activity of gefitinib on PC-9 cells [2]: dramatically reduced | disease control rate (CR+PR+SD/CR+PR+SD+PD) [3, 5]: 40.0% | tumor response rate (CR+PR/CR+PR+SD+PD) [3, 5]: 16.0% | patients classified as CR [3, 6]: none | patients classified as PD [3, 6]: 30 patients | patients classified as PR [3, 6]: eight | patients classified as SD [3, 6]: 12 patients | patients showing no improvement in symptoms [4]: 60%
